Data set [1] has as its target T1, recombinant PME-1_des3 (Homo sapiens, UniProt Q9Y570).
T1 sequence (Q9Y570 1-383 limits assumed): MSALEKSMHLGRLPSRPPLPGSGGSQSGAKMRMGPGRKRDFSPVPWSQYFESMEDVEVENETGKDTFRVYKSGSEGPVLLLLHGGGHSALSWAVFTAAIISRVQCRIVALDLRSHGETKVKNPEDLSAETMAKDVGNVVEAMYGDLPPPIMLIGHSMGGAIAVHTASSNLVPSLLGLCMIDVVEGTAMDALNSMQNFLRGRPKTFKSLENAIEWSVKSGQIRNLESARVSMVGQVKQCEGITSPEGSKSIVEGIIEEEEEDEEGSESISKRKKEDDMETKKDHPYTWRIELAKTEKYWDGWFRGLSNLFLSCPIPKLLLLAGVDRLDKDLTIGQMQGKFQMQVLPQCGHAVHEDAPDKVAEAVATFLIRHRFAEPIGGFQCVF
Briefly: Thermal melt (thermal shift) assay. In kind it is binding. Here is the method: There are several commercially available covalent PME-1 inhibitors that we have analyzed as potential endometrial cancer therapeutics. To confirm that the inhibitors directly bind PME-1, we completed a thermal melt assay. One micromole (1 μmole) of recombinant PME-1_des3, of which the last 3 amino acids are deleted, were pre-incubated with SYBR orange in the presence of 50 μM ABL-127 (a potent covalent PME-1 inhibitor, squares) or 0.05% DMSO (vehicle, circles) for 10 minutes (FIG. 25) at 37° C. We then performed a thermal gradient, increasing the temperature by 2° C. each minute from 37° C. to 95° C. and fluorescent signal was detected at 492-601 nm on a thermal cycler. The increase in Tm from ˜55° C. (PME-1+DMSO, circles) to ˜65° C. (PME-1+ABL-127, squares) indicated thermal stabilization of the PME-1 protein via direct binding of the ABL-127 inhibitor (FIG. 25).
The assay was completed by first conducting a 10 min pre-incubation of one μmole of recombinant PME-1des3 with 50 μM ABL127 (Sigma) or vehicle (0.05% DMSO) in the presence of SYBR Orange (1:1,000, v/v, Sigma) at 37° C. in 1×NEB buffer 2 (50 mM NaCl, 10 mM Tris-HCl, 10 mM MgCl2, 1 mM DTT, pH 7.9 at 25° C.), a thermal gradient was performed increasing temperature by 2° C. per minute increments from 37° to 95° C. and fluorescence (492 nm-610 nm) was acquired on a thermal cycler Mx3005P (Stratagene).

In data set [2] the test system is Ishikawa endometrial cancer cells. The data set can be described thus: Foci formation assay in Ishikawa cells. In kind it is cell-based, human. The conditions noted are these: DMSO set to 100%. Here is the method:
This study was completed in Ishikawa endometrial cancer cells.
1,000 cells were plated in a six well tissue culture dish in selection media (to include 5 μg/ml puromycin) (InvivoGen). Cells were allowed to adhere and grow in a 5% CO2, 37° C. incubator for 10 to 14 days. […] Cells were stained with 1% crystal violet (Sigma Aldrich) for five minutes and rinsed with PBS. Colonies were counted and data is presented as the percentage of change compared to the control. All Experiments were repeated at least three times.

For data set [3], the system named is Ishikawa cells. Briefly: Trans-well migration assay. In kind it is cell-based, human. The conditions noted are these: 24 hr, through collagen towards 30% FBS, vs DMSO. Here is the method:
We next asked if PME-1 inhibition led to decreased cell migration by completing a trans-well migration assay. Cells were synchronized for 24 hours in media containing 0% FBS. For this experiment, DMSO was again used as the vehicle control and Ishikawa cells were treated with DMSO (control) or 50 nM ABL-127 or 20 μM AMZ-30 for 24 hr and were allowed to migrate through a collagen-coated well towards the bottom chamber, containing media with 30% FBS.
The assay was completed with ECC-1 endometrial carcinoma cell lines following kit instructions Cultrex 96 Well Collagen IV Cell Invasion Assay (cat #3458-096-K). Briefly, cells were serum starved for 24 hours prior to experimentation, then counted and put into the top chamber of a collagen type IV coated Transwell membrane at a concentration of 1×10^6 cells/well in 0% FBS. The bottom chamber contained 30% FBS. Cells were allowed to invade at 37° C. humid chamber incubator for 24 hours. Cells that invaded were analyzed using the kit provided Calcein-AM and fluorescence was read using FluoStar Galaxy.

The test system of data set [4] is RL95-2 cells. Briefly: Foci forming assay in RL95-2 cells. Format: cell-based, human. The method, then:
A foci forming assay was used in this study to monitor cell growth. Equal amounts of cells were plated and they were allowed to grow for a determined period of time (see Materials and Methods section for details). The foci that were formed were then stained with the crystal violet dye. Cells were washed […] with PBS prior to visualization. Numbers of foci were counted and results were averaged among different experiments.
To determine if the loss of active PME-1 accounted for the observed decrease in foci formation, we first treated RL95-2 cells with siRNA against the 3′-UTR of PPME1 to decrease endogenous levels of PME-1. […] The S156A PME-1 mutant is not capable of demethylating its target, PP2A.
1,000 cells were plated in a six well tissue culture dish in selection media (to include 5 μg/ml puromycin) (InvivoGen). Cells were allowed to adhere and grow in a 5% CO2, 37° C. incubator for 10 to 14 days. Media was replaced every fourth day. Cells were stained with 1% crystal violet (Sigma Aldrich) for five minutes and rinsed with PBS. Colonies were counted and data is presented as the percentage of change compared to the control. All Experiments were repeated at least three times.

Data set [5] deals with protein phosphatase 2A (PP2A), endogenous in RL95-2 cells. The data set can be described thus: cell-based or functional assay.
Data set [6] relates to PME-1. Briefly: Western blot of PME-1 protein in RL95-2 cells. Format: cell-based, human. The following applies: GAPDH loading control. The text has this: We prepared RL95-2 cell lines expressing empty vector (control), over-expressing PME-1 (+PME-1), or expressing shRNA against PPME1, the gene that codes for PME-1 protein (−PME-1). Using these cells, we confirmed the appropriate level of PME-1 via real-time RT-PCR (data not shown) and Western blot analysis (FIG. 8). GAPDH was used as a loading control.
We also prepared two different shRNAs targeted against PME-1.
Lentivirus was produced in HEK293T cell lines with pLKO shRN vectors (Thermo Scientific, cat. no. RHS4533; Waltham, Mass.) and pCDH-CuO-GFP-Puro vectors (System Biosciences, Inc., cat. no. QM513B-1; Mountain View, Calif.) with pPACKH1 packaging plasmid (System Biosciences, Inc., cat, no. LV050A-1). shRNA sequences are in the Table 2. Lentivirus was collected and concentrated with Peg-IT concentrating solution (System Biosciences, Inc.). 5×10^6 ifu/ml lentivirus was added to cell cultures with growth media and 8 μg/ml PolyBrene (Sigma Aldrich). Media was changed to full growth media after 24 hrs and to selection media containing antibiotic after 48 hrs (5 μg/ml puromycin) (Invivogen) for 10 days.
15 μg of protein was used for western analysis. […]
(In western blotting, separated proteins are transferred to a membrane and probed.)

Data set [7] concerns RL95-2 cells. The data set can be described thus: Colony forming / invasive growth assay in Matrigel. Format: cell-based, human. The conditions noted are these: RL95-2 in Matrigel, addition of TGF-β (10 ng/ml). Here is the method:
To determine if PME-1 contributes to the more invasive and metastatic phenotypes, we performed a colony forming assay in matrigel.
The 3D On Top Matrigel Assay was completed in 24 well dishes as described previously {Lee, 2007 #1577}. Briefly, the bottoms of 24 well dishes were coated with 50 μl BD Matrigel Basement Matrix Phenol Red Free (BD Biosciences cat. #356237) and allowed to solidify at 37° C. 10^5 cells were suspended in 250 μl chilled medium containing either 10 ng/ml of TGF-b or vehicle and allowed to settle at 37° C. for 30 minutes. Chilled medium containing 10% of Matrigel was added by pipetting gently down the sidewall of the well and incubated at 37° C. for ten days changing top medium every second day. Colony counts were performed on the tenth day, averages were taken from three fields of view using a 10× objective. Experiment was repeated three times.

In data set [8] the test system is PPME1. The data set can be described thus: qRT-PCR of PPME1 (PME-1) expression in RL95-2 cells. In kind it is cell-based, human. The conditions noted are these: TGF-β 24 hours, control cells and +PME-1 cells, normalized to GAPDH. Here is the method: In this study, we transfected RL95-2 cells to express empty vector (Control), over-expressing PME-1 (+PME-1) or expressing shRNA against PME-1 (−PME-1) followed by serum starvation for 24 hours. Afterwards, either vehicle or TGF-β treatment was performed at the end of the 24 hours. TGF-β was used to induce cells to initiate the EMT program. Gene expression analysis was conducted using quantitative real-time PCR.
Using RL95-2 endometrial cancer cells, we overexpressed PME-1 (FIG. 21A) or depleted PME-1 with shRNA (FIG. 21B) and confirmed that PME-1 was appropriately expressed.
Total RNA was extracted with Qiagen RNAEasy kit from RL95-2 cells. cDNA was synthesized using 500 ng-1 μg of RNA and SuperScript VILO c-DNA mix (Life Technologies). Taqman probes and PCR-mix were purchased from Life Technologies. All samples were run in triplicates. Results are representative of three independent experiments in which genes of interest were normalized to the house-keeping gene, 18S or GAPDH, where fold-change was calculated using the ddCt method.

One may read the Tm as the temperature at the midpoint of the melting transition. Take `COC(=O)N1C(=O)C(c2ccccc2)(C2CCCC2)N1C(=O)OC` (stereo in doubt) [ABL-127, (3R)-Dimethyl 3-cyclopentyl-4-oxo-3-phenyl-1,2-diazetidine-1,2,-dicarboxylate]: the melting temperature (Tm) in data set [1] (50 μM ABL-127, 10 min pre-incubation at 37° C., PME-1+DMSO ˜55° C.) is about 65 °C. Further, in data set [1] (binding of ABL-127 vs vehicle), the “melting temperature (Tm) and thermal stability of PME-1” value is “increases”. Moreover, the “decrease in the amount of foci formed” value in data set [2] (50 nM every 2-3 days for 10 days) is about 50%. For the same molecule, the “percentage of cells capable of migrating” value in data set [3] (50 nM) is on record as “dramatic decrease”. On to `N#C/C(=C\c1cccn1S(=O)(=O)c1cccc([N+](=O)[O-])c1)S(=O)(=O)c1ccc(F)cc1` [AMZ-30, (E)-2-(4-Fluorophenylsulfonyl)-3-(1-(3-nitrophenylsulfonyl)-1H-pyrrol-2-yl)-acrylonitrile], for which the “decrease in the amount of foci formed” value in data set [2] (25 μM every 2-3 days for 10 days) is recorded as about 50%. Moreover, in data set [3] (20 μM), the “percentage of cells capable of migrating” value is “dramatic decrease”. Consider “PPME1 siRNA no. 2: siRNA, SEQ ID NO: 5: GTG GAT AGC ATC ACA AGA A, targets 3′-UTR (guide GTGGATAGCATCACAAGAA; listed as DNA, chemistry not given here; listed as Homo sapiens)”, for which the “decrease in foci formed” value in data set [4] (RL95-2, siRNA followed by empty vector, vs control siRNA with empty vector) was determined as 40%. In data set [4] (RL95-2, siRNA plus over-expressed S156A mutant PME-1), the “reduction in foci formation” value was found to be 40%.

Consider “PME-1 (endogenous, RL95-2 cells) (from UniProt Q9Y570 2-386) (enzyme)”, for which, in data set [5], the PP2A activity (phosphatase assay) after shRNA depletion of PME-1 in RL95-2 cells was found to be 30 fold. On to “shPPME1 no. 1: shRNA targeting PPME1, SEQ ID NO: 1: GTACAGCTATGGATGCACTTA, bp 554-574 (guide GTACAGCTATGGATGCACTTA; listed as Homo sapiens)”, for which the “PME-1 levels via Western blot analysis” value in data set [6] was “significantly decreased”.

With TGF-β [reference compound], the colony number result in data set [7] was “overall decrease”. In addition, in data set [8], the “increase in PME-1 expression” value is about 2 fold. For the molecule “PME-1 over-expressed in RL95-2 cells (+PME-1) (from UniProt Q9Y570 1-386) (enzyme)”, in data set [5], the PP2A activity (phosphatase assay) after over-expression of PME-1 in RL95-2 cells came to 90 % decrease.

(Values after patent US20200190592A1, “PME-1 AS A BIOMARKER TO PREDICT AND DIAGNOSE AN INCREASED RISK OF ENDOMETRIAL CANCER AND GENE SILENCING OF PME-1 TO INHIBIT EPITHELIAL TO MESENCHYMAL TRANSITION” (Medical Diagnostic Laboratories, L.L.C., priority 2018, published 2020).)
